Assay results reported in article PMC7360862, “Sub-Acute Treatment of Curcumin Derivative J147 Ameliorates Depression-Like Behavior Through 5-HT1A-Mediated cAMP Signaling” (Frontiers in Neuroscience, 2020).

Key:
5-HT1B receptor [1] = biological target: T1, 5-HT1B receptor (Mus musculus, UniProt P28334); assay: competitive radioligand binding, mouse frontal cortex membranes, reference antagonist measured in the same laboratory
T1 construct: gene Htr1b; native receptor in mouse frontal cortex membranes
T1 sequence (P28334 whole entry): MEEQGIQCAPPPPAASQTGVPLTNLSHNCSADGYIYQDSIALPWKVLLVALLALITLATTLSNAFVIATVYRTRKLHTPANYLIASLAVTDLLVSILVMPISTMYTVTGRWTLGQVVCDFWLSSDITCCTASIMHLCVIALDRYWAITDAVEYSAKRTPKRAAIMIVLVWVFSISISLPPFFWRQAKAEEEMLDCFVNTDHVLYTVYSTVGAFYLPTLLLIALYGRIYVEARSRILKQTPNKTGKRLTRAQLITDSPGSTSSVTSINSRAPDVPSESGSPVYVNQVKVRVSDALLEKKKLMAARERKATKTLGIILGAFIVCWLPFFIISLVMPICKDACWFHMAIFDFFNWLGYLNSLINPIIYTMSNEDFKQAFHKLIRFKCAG

5-HT1A receptor = biological target: T2, 5-HT1A receptor (Mus musculus, UniProt Q64264); assay: competitive radioligand binding ([3H]-8-OH-DPAT displacement), mouse frontal cortex membranes
T2 construct: gene Htr1a; native receptor in mouse frontal cortex membranes
T2 sequence (Q64264 1-421): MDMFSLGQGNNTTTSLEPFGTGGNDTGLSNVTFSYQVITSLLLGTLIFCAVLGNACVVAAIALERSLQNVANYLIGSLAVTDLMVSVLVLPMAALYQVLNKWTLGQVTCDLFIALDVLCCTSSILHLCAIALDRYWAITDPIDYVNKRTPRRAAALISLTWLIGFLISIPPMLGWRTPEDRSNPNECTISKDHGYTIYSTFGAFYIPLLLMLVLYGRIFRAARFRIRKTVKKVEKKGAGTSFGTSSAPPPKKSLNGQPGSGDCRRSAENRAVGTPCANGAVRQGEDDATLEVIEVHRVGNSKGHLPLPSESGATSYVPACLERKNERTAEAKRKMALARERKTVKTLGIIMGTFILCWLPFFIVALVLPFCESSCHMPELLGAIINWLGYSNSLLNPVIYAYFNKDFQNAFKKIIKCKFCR

5-HT1B receptor [2] = biological target: T1, 5-HT1B receptor; assay: competitive radioligand binding, mouse frontal cortex membranes

Row | Structure (SMILES) | Ki (5-HT1B receptor [1]) [nM] | Ki (5-HT1A receptor) [nM] | Ki (5-HT1B receptor [2]) [nM]
1 | COc1ccc(NC(=O)c2ccc(-c3ccc(-c4noc(C)n4)cc3C)cc2)cc1N1CCN(C)CC1 [GR-127935] | 1.29 | – | –
2 | COc1cccc(/C=N/N(C(=O)C(F)(F)F)c2ccc(C)cc2C)c1 [J147] | – | 0.42 | 612
